Gewichtszunahme data for 4 molecules are collected here from patent publication EP0244728B1, “Use of heteroarylethyl amines to stimulate animal growth, heteroarylethyl amines and process for their preparation” (BAYER AG, priority 1986, dated 1987).

This test can be described thus: Rat feeding trial (Ratten-Fütterungsversuch), Beispiel A. In kind it is in vivo. To be noted: Dosis 100 ppm in feed ad lib; female SPF Wistar rats, 90-110 g; 13-day trial; control without active substance = 100. The source says:
Weibliche Laborratten 90-110 g schwer vom Typ SPF Wistar (Züchtung Hagemann) werden ad lib mit Standard Rattenfutter, das mit der gewünschten Menge Wirkstoff versetzt ist, gefüttert. Jeder Versuchsansatz wird mit Futter der identischen Charge durchgeführt, so daß Unterschiede in der Zusammensetzung des Futters die Vergleichbarkeit der Ergebnisse nicht beeinträchtigen können.
Die Ratten erhalten Wasser ad lib.
Jeweils 12 Ratten bilden eine Versuchsgruppe und werden mit Futter, das mit der gewünschten Menge Wirkstoff versetzt ist gefüttert. Eine Kontrollgruppe erhält Futter ohne Wirkstoff. Das durchschnittliche Körpergewicht sowie die Streuung in den Körpergewichten der Ratten ist in jeder Versuchsgruppe gleich, so daß eine Vergleichbarkeit der Versuchsgruppen untereinander gewährleistet ist.
Während des 13-tägigen Versuchs werden Gewichtszunahme und Futterverbrauch bestimmt.

Structures are written as SMILES.

In turn, `CC(C)(C)NCC(O)c1cc(Cl)nc(Cl)c1` (stereo not shown) [compound 1] returned a Gewichtszunahme of 110.
The molecule `CC(C)(C)NCC(O)c1cnc(N)c(Cl)c1` (stereo not shown) [compound 3] had a Gewichtszunahme of 115.
In turn, `CC(C)(C)NCC(O)c1ccc(N)c(Cl)n1` (stereo not shown) [compound 6] yielded a Gewichtszunahme of 110.
The same measure for `CC(C)NCC(O)c1ccc(N)cn1` (stereo not shown) [compound 7]: 120.
